Measurements from patent publication US10807957B2, “Tetradentate chelating monoquinoline derivative, manufacturing method thereof, and application of same as metal ion regulator for neurodegenerative disease” (GUANGDONG UNIVERSITY OF TECHNOLOGY, priority 2016, dated 2020).

Assay: Affinity constants for Cu2+ by competitive chelation with UV/Vis monitoring
Type: binding
Conditions: Cu2+ versus Zn2+, pH 7.4
Protocol: Estimation of affinity constants of compounds of general formula (I) with metal ions: […]
Affinity Constants for Cu^2:
The following mother solutions were prepared: (A) ligand L=TDMQ-n, 300 μM in 20 mM Tris.HCl pH 7.4, 150 mM NaCl; (B) Competing ligands (namely NTA, EDTA, EDDA, EGTA, or CDTA), 300 μM in 20 mM Tris.HCl pH 7.4, 150 mM NaCl; (C) CuCl2, 15 mM in H2O. In the UV/Vis cuvette, 100 μL of (A), 100 μL of (B), 1800 μL of 20 mM Tris.HCl pH 7.4, 150 mM NaCl, and 2 μL of (C) were added in that order. The final concentrations of L, Competing ligand (LC), and Cu^2+ were 15 μM.
The spectrum of the ligand L (2 μL of H2O instead of 2 μL of (C)) was recorded according to above conditions; and the spectrum of [Cu^2+−L] (100 μL of 20 mM Tris.HCl pH 7.4, 150 mM NaCl, instead of 100 μL of (B)) was recorded according to above conditions. All ligands and complexes studied followed the Beer-Lambert law in the experimental conditions used.
The equations of complexation are as follows: […]
It can be deduced that at the equilibrium:
UV/Vis monitoring at 383 nm allowed to determine the absorbance of the competitive chelation mixture (Amix), the absorbance of L in the absence of Cu^2+ (AL), and the absorbance of CuL in the absence of competing ligand (ACu-L). The proportion of Cu^2+ chelated by L was calculated as x=(AL-Amix)/(AL-ACu-L). Experiments were performed in triplicate.

| Compound | difference between binding constants for copper and zinc |
| --- | --- |
| CN(C)CCCNCc1ccc2c(Cl)cc(Cl)c(N)c2n1 [TDMQ-19, N^1-((8-amino-5,7-dichloroquinolin-2-yl)methyl)-N^3,N3-dimehypropane-1,3-diamine] | 10 orders of magnitude |
| CN(C)CCNCCc1ccc2c(Cl)cc(Cl)c(N)c2n1 [TDMQ-20, N^1-(2-(8-amino-5,7-dichloroquinolin-2-yl)ethyl)-N^2,N^2-dimethylethane-1,2-diamine] | 12 orders of magnitude |
